In patent US11666577B2 (National Institute of Biological Sciences, Beijing, priority 2018, dated 2023):
Where two headings read alike, the source gives them in different places.

Assays:
pMLKL = experiment: Immunofluorescence staining of pMLKL in HT-29 cells; type: cell-based, human; details: monoclonal anti-pMLKL antibody, Experimental-section numbering
Text: This is a crucial step in the translocation of MLKL from the cytoplasm to the cell membrane, where it mediates ion influx and/or causes the disruption of cell structures.^[5] To evaluate the mechanism of this series of compounds on MLKL, we detected the status (state of oligomerization and phosphorylation) of MLKL under TSZ stimulation in the presence of compound 12 or 15. […] Next, we evaluated the effects of MLKL inhibitors on the translocation of MLKL from the cytoplasm to the cell membrane. HT-29 cells were treated with TSZ in the presence of RIPA-56, NSA, compound 12, or compound 15 for 6 h. The proteins from cell lysates were separated and the soluble phase and membrane phase were analyzed separately with anti-MLKL and anti-pMLKL antibodies. […] We also performed immunofluorescence staining in HT-29 cells using a monoclonal anti-pMLKL antibody. After TSZ stimulation, large, bright-green fluorescent dots (pMLKL) were present in the plasma membrane. […] Sun, X. Wang, Trends Biochem. Sci 2014, 39, 587-593; bM. Pasparakis, P. Vandenabeele, Nature 2015, 517, 311-320. • 2. N. Holler, R. Zaru, O. Micheau, M. Thome, A. Attinger, S. Valitutti, J.-L. Bodmer, P. Schneider, B. Seed, J. Tschopp, Nat. Immunol. 2000, 1, 489-495. • 3. aS. He, L. Wang, L. Miao, T. Wang, F. Du, L. Zhao, X. Wang, Cell 2009, 137, 1100-1111; bD.-W. Zhang, J. Shao, J. Lin, N. Zhang, B.-J. Lu, S.-C. Lin, M.-Q. Dong, J. Han, Science 2009, 325, 332-336. • 4. L. Sun, H. et al. Cell 2012, 148, 213-227. • 5. aH. Wang, L. Sun, L. Su, J. Rizo, L. Liu, L.-F. Wang, F.-S. Wang, X. Wang, Mol. Cell 2014, 54, 133-146; bZ. Cai, S. Jitkaew, J. Zhao, H.-C. Chiang, S. Choksi, J. Liu, Y. Ward, L.-g. Wu, Z.-G. Liu, Nat. Cell Biol. 2014, 16, 55-65. • 6. aJ. Wu, et al., Cell Res. 2013, 23, 994-1006; bD. Ofengeim, Y. Ito, A. Najafov, Y. Zhang, B. Shan, J. P. DeWitt, J. Ye, X. Zhang, A. Chang, H. Vakifahmetoglu-Norberg, Cell reports 2015, 10, 1836-1849; cM. Pierdomenico, A. Negroni, L. Stronati, R. Vitali, E. Prete, J. Bertin, P. J. Gough, M. Aloi, S. Cucchiara, Am J. Gastroenterol. 2014, 109, 279-287. • 7. […]

HT-29 cells = experiment: Necroptosis assay (TNF-α/Smac mimetic/z-VAD, TSZ-induced) in HT-29 cells; type: cell-based, human
Method in brief: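 HT-29 cells were challenged with 20 ng/ml TNF-α, 100 nM Smac mimetic and 20 mM z-VAD while compound was added at the same time (library screen at 10 mM). After 24 h, viability was read as ATP luminescence (CellTiter-Glo) and normalized to DMSO-treated cells; values are means ± SD of duplicates.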

RIP3 = RIP3 (Homo sapiens, UniProt Q9Y572); experiment: RIP3 kinase activity enzymatic assay; type: biochemical
Experimental: (§1) To determine whether the direct target of this series of compounds is MLKL, we performed activity based protein profiling (ABPP). Compound 12, an affinity probe, was incubated with MLKL-flag-HT-29 cell lysates for 2 hours, followed by a click reaction to conjugate the probe to a biotin-tag. The biotin-labeled compound-protein complexes were pulled down and analysed via SDS-PAGE.

VEGFR2 = VEGFR2 (Homo sapiens, UniProt P35968); details: cited from earlier work
RIP1 = target: T1, RIP1 (Homo sapiens, UniProt Q13546); experiment: RIP1 kinase activity enzymatic assay; type: biochemical
T1 sequence (Q13546 1-671): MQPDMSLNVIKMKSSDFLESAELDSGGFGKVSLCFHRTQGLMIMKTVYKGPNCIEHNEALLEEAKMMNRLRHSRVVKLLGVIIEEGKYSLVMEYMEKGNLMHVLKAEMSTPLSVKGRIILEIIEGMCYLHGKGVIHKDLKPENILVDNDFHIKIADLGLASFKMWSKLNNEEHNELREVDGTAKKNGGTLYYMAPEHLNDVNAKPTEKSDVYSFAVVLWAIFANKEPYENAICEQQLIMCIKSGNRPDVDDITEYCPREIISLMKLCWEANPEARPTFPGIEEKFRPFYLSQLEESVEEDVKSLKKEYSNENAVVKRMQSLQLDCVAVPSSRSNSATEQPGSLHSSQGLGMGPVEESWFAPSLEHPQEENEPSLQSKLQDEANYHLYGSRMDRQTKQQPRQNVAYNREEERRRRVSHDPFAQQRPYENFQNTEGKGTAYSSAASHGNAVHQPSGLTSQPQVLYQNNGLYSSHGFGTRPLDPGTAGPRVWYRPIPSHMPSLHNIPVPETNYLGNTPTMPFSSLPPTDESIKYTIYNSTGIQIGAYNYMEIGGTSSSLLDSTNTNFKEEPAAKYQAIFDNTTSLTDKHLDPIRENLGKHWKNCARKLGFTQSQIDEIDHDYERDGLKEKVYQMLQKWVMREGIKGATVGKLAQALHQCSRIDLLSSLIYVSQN
Experimental: as §1

[1] = Series 1 (Table 1) compounds 1-146, HT-29 cells, TNF-α/Smac mimetic/z-VAD, 24 hrs, cell viability by ATP level, read-out: Series 1 compound necroptosis activity
[2] = Series 1 (Table 1) compounds 147-176, activity extrapolated, read-out: Series 1 compound necroptosis activity (extrapolated)
[3] = Homo sapiens, Series 1 (Table 1) compounds 1-146, HT-29 cells, TNF-α/Smac mimetic/z-VAD, 24 hrs, cell viability by ATP level, read-out: Series 1 compound necroptosis activity
[4] = Homo sapiens, Series 2 (Table 2) compounds, HT-29 necroptosis assay, read-out: Series 2 compound necroptosis activity

RIP3, sequence (Q9Y572 whole entry): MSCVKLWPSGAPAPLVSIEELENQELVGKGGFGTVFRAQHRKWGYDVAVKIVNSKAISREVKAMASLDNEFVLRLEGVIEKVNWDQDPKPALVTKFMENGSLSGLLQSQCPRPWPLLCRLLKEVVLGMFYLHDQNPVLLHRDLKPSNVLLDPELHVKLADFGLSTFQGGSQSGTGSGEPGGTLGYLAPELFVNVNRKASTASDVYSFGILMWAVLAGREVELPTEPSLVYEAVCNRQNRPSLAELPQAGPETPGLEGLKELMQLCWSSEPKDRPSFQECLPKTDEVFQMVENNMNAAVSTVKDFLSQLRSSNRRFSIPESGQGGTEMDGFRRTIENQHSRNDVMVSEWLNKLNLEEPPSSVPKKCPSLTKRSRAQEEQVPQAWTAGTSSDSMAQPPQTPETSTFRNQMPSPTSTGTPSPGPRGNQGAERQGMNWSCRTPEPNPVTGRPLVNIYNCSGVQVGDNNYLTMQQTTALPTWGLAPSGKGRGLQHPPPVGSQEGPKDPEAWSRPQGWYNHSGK
VEGFR2, sequence (P35968 20-1356, species assumed): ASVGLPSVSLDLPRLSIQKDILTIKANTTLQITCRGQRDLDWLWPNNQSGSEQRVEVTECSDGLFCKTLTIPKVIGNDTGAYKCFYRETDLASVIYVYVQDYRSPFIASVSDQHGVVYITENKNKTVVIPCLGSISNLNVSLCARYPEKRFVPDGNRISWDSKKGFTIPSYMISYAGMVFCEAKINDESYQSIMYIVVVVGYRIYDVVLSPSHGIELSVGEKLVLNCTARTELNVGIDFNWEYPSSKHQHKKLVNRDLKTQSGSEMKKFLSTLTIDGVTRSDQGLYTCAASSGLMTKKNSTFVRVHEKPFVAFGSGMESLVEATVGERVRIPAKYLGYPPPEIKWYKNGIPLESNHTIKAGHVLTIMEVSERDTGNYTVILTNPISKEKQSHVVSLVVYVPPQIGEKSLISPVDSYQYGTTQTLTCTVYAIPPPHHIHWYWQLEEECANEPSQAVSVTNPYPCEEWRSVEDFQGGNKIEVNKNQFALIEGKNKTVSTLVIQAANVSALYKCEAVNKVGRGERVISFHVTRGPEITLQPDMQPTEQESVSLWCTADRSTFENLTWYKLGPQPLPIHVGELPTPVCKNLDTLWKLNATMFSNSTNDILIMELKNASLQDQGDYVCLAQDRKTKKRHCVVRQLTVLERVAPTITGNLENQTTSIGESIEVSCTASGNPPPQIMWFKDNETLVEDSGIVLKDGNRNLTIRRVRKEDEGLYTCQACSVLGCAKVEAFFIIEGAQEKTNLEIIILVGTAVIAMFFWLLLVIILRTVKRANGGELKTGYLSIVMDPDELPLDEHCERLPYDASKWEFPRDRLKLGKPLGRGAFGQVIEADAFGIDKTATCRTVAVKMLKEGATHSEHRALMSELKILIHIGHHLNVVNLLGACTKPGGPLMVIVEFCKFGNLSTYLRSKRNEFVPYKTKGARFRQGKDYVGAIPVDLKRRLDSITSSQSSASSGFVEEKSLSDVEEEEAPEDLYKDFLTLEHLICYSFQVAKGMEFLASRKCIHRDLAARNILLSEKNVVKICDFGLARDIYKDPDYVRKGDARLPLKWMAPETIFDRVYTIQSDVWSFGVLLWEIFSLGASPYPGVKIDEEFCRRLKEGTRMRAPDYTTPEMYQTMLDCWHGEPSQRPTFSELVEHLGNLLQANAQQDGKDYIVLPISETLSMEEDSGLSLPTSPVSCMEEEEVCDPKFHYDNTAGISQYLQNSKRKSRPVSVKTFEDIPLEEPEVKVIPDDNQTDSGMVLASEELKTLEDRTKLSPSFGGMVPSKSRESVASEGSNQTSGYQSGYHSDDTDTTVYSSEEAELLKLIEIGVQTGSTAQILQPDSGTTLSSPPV

For CCC(C)(C)C(=O)N(O)Cc1ccccc1 [RIPA-56], the “pMLKL immunofluorescence after TSZ stimulation” value (from here on “pMLKL immunofluorescence”) (pMLKL) was “blocked the phosphorylation of MLKL completely”.

With COc1nccnc1NS(=O)(=O)c1ccc(NC(=O)/C=C/c2ccc([N+](=O)[O-])s2)cc1 [NSA, necrosulfonamide, reference compound] the EC50 (HT-29 cells; Experimental-section numbering (compound 1 = Series 1 compound 4), necroptosis induced for 24 h, mean of at least three independent analyses, read-out: EC50 (nM), potency in TSZ-induced necroptosis assays in HT-29 cells) was 447 ± 32 nM and the “pMLKL immunofluorescence” value (pMLKL) was “small pMLKL dots were dispersed in the cytoplasm”.

For CN(c1ccc(NC(=O)Nc2ccc(OC(F)(F)F)cc2)cc1)c1ccnc(Nc2cccc(S(N)(=O)=O)c2)n1 [GW806742X], the EC50 (HT-29 cells; Homo sapiens, HT-29, 24 h, read-out: EC50 (nM), potency in TSZ-induced necroptosis assays in HT-29 cells) is listed as 589 ± 12 nM, the “off-target activity against RIP3” value (RIP3) is listed as “off-target activities” and the “off-target activity against other kinases, including VEGFR2” value (VEGFR2) is listed as “off-target activity”. The “off-target activity against RIP1” value (RIP1) was “off-target activities” and the “pMLKL immunofluorescence” value (pMLKL) was “blocked the phosphorylation of MLKL completely”.

With Cn1c(=O)c2c(nc(S(=O)(=O)Cc3ccc(Br)c(Cl)c3)n2C)n(C)c1=O [Compound 64, 8-(4-bromo-3-chlorobenzylsulfonyl)-1,3,7-trimethyl-1H-purine-2,6(3H,7H)-dione] the EC50 (HT-29 cells; [1]) was 1000 to 1e+06 nM.

Work on Cn1c(S(C)(=O)=O)nc2c1c(=O)n(CC1CC1)c(=O)n2C [Compound 91, 1-(cyclopropylmethyl)-3,7-dimethyl-8-(methylsulfonyl)-1H-purine-2,6(3H,7H)-dione] yielded an EC50 (HT-29 cells; [1]) of 1000 to 1e+06 nM.

Cn1c(=O)c2c(nc(S(=O)(=O)Cc3ccc4ccccc4c3)n2C)n(C)c1=O [Compound 23, 1,3,7-trimethyl-8-(naphthalen-2-ylmethylsulfonyl)-1H-purine-2,6(3H,7H)-dione] showed an EC50 (HT-29 cells; [1]) of 1000 to 1e+06 nM.

With Cn1c(=O)c2c(nc(S(=O)(=O)CCc3cn(CCOCCOCCOCCNC(=O)CCCC[C@@H]4SCC5NC(=O)NC54)nn3)n2C)n(C)c1=O (stereo partly drawn) [Compound 25, 5-((4S)-2-oxohexahydro-1H-thieno[3,4-d]imidazol-4-yl)-N-(2-(2-(2-(2-(4-(2-(1,3,7-trimethyl-2,6-dioxo-2,3,6,7-tetrahydro-1H-purin-8-ylsulfonyl)ethyl)-1H-1,2,3-triazol-1-yl)ethoxy)ethoxy)ethoxy)ethyl)pentanamide] the EC50 (HT-29 cells; [1]) was 1000 to 1e+06 nM.

Work on CCCS(=O)(=O)c1nc2c(c(=O)n(C)c(=O)n2CC#Cc2cccc(O)c2)n1C [Compound 155] yielded an EC50 (HT-29 cells; [2]) of 1000 to 1e+06 nM.

Compound Cn1c(=O)c2c(nc(S(C)(=O)=O)n2C)n(CC#Cc2ccc3c(c2)NCCC3)c1=O [Compound 170] has an EC50 (HT-29 cells; [2]) of 1000 to 1e+06 nM.

CCS(=O)(=O)c1nc2c(c(=O)n(C)c(=O)n2C)n1C [Compound 7, 8-(ethylsulfonyl)-1,3,7-trimethyl-1H-purine-2,6(3H,7H)-dione] showed an EC50 (HT-29 cells; [3]) of 1000 to 100000 nM.

For Cn1c(=O)c2c(nc(S(=O)(=O)CCOCCO)n2C)n(CC#Cc2cccc(O)c2)c1=O [Compound 153], the EC50 (HT-29 cells; [2]) was 1000 to 1e+06 nM.

Cn1c(=O)c2c(nc3n2CCCS3(=O)=O)n(CC#Cc2cccc(O)c2)c1=O [Compound 149] showed an EC50 (HT-29 cells; [2]) of 1000 to 1e+06 nM.

With COCCOCCS(=O)(=O)c1nc2c(c(=O)n(C)c(=O)n2CC#Cc2cccc(O)c2)n1C [Compound 154] the EC50 (HT-29 cells; [2]) was 1000 to 1e+06 nM.

Cn1c(=O)c2c(nc3n2CCS3(=O)=O)n(CC#Cc2cccc(NCCN3CCOCC3)c2)c1=O [Compound 67] gave an EC50 (HT-29 cells; [4]) of 1 to 100 nM.

Work on Cn1c(S(C)(=O)=O)nc2c1c(=O)n(Cc1ccccc1)c(=O)n2C [Compound 93, 1-benzyl-3,7-dimethyl-8-(methylsulfonyl)-1H-purine-2,6(3H,7H)-dione] yielded an EC50 (HT-29 cells; [1]) of 1000 to 1e+06 nM.

In the case of Cn1c(=O)c2c(nc(S(=O)(=O)CCCO)n2C)n(C)c1=O [Compound 3], the EC50 (HT-29 cells; [4]) is reported as 100 to 10000 nM.

Cn1c(=O)c2c(nc([S+](C)[O-])n2C)n(C)c1=O (centres unmarked) [Compound 3, 1,3,7-trimethyl-8-(methylsulfinyl)-1H-purine-2,6(3H,7H)-dione] showed an EC50 (HT-29 cells; [1]) of 1000 to 1e+06 nM.

For Cn1c(=O)c2c(nc(S(=O)(=O)CC3CC3)n2C)n(CC#Cc2cccc([N+](=O)[O-])c2)c1=O [Compound 125, 8-((cyclopropylmethyl)sulfonyl)-1,7-dimethyl-3-(3-(3-nitrophenyl)prop-2-yn-1-yl)-3,7-dihydro-1H-purine-2,6-dione], the EC50 (HT-29 cells; Series 1 (Table 1) compounds, HT-29 cells, TNF-α/Smac mimetic/z-VAD, 24 hrs, cell viability by ATP level, read-out: Series 1 compound necroptosis activity) was 1 to 1000 nM.

In the case of CSc1nc2c(c(=O)[nH]c(=O)n2C)n1C [Compound 87, 3,7-dimethyl-8-(methylthio)-1H-purine-2,6(3H,7H)-dione], the EC50 (HT-29 cells; [1]) is reported as 1000 to 1e+06 nM.

Cn1c(=O)c2c(nc(S(=O)(=O)Cc3ccccc3)n2C)n(C)c1=O [Compound 21, 8-(benzylsulfonyl)-1,3,7-trimethyl-1H-purine-2,6(3H,7H)-dione] showed an EC50 (HT-29 cells; [3]) of 1000 to 100000 nM.

With CNc1cc(C#CCn2c(=O)n(C)c(=O)c3c2nc([S+]([O-])Cc2cc(OC)ccc2OC)n3C)ccn1 (centres unmarked) [Compound 128, 8-((2,5-dimethoxybenzyl)sulfinyl)-1,7-dimethyl-3-(3-(2-(methylamino)pyridin-4-yl)prop-2-yn-1-yl)-3,7-dihydro-1H-purine-2,6-dione] the EC50 (HT-29 cells; [3]) was 1000 to 100000 nM.
